Laboratory results as given in PubChem BioAssay (NCI).
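Protocol summary: plate cells (96-well), add compound at 5 concentrations, incubate 48 h, interpolate endpoints linearly. Abbreviation: GI50, concentration required for 50% inhibition of growth. TGI marks complete inhibition of growth.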

Columns and labels:
Test in all cases: inhibition of tumour cell growth, NCI panel, 48 h
HCC-2998 colon = system: HCC-2998 colon
SW-620 colon = system: SW-620 colon
K-562 leukemia = system: K-562 leukemia
A549 NSCLC = system: A549 NSCLC
UO-31 renal = system: UO-31 renal
T-47D breast = system: T-47D breast
TK-10 renal = system: TK-10 renal
SF-295 CNS = system: SF-295 CNS
HS 578T breast = system: HS 578T breast
BT-549 breast = system: BT-549 breast
SK-MEL-5 melanoma = system: SK-MEL-5 melanoma
SK-MEL-28 melanoma = system: SK-MEL-28 melanoma
MOLT-4 leukemia = system: MOLT-4 leukemia
NCI-H226 lung = system: NCI-H226 lung
SN12C renal = system: SN12C renal
MDA-MB-468 breast = system: MDA-MB-468 breast
SNB-19 CNS = system: SNB-19 CNS
OVCAR-4 ovarian = system: OVCAR-4 ovarian
UACC-257 melanoma = system: UACC-257 melanoma
SK-OV-3 ovarian = system: SK-OV-3 ovarian
HOP-62 NSCLC = system: HOP-62 NSCLC
OVCAR-8 ovarian = system: OVCAR-8 ovarian
IGROV1 ovarian = system: IGROV1 ovarian
NCI/ADR-RES ovarian = system: NCI/ADR-RES ovarian
U251 CNS = system: U251 CNS
ACHN renal = system: ACHN renal
HL-60(TB) leukemia = system: HL-60(TB) leukemia
SNB-75 CNS = system: SNB-75 CNS
HOP-92 NSCLC = system: HOP-92 NSCLC
HCT-116 colon = system: HCT-116 colon
RPMI-8226 leukemia = system: RPMI-8226 leukemia
DU-145 prostate = system: DU-145 prostate
SF-268 CNS = system: SF-268 CNS
MCF7 breast = system: MCF7 breast
HCT-15 colon = system: HCT-15 colon
EKVX NSCLC = system: EKVX NSCLC
PC-3 prostate = system: PC-3 prostate
MDA-MB-231 breast = system: MDA-MB-231 breast
M14 melanoma = system: M14 melanoma
OVCAR-3 ovarian = system: OVCAR-3 ovarian
KM12 colon = system: KM12 colon
MDA-MB-435 = system: MDA-MB-435
UACC-62 melanoma = system: UACC-62 melanoma
RXF 393 renal = system: RXF 393 renal
SF-539 CNS = system: SF-539 CNS
CCRF-CEM leukemia = system: CCRF-CEM leukemia
CAKI-1 renal = system: CAKI-1 renal
NCI-H23 lung = system: NCI-H23 lung
LOX IMVI melanoma = system: LOX IMVI melanoma
SR leukemia = system: SR leukemia
NCI-H522 lung = system: NCI-H522 lung
OVCAR-5 ovarian = system: OVCAR-5 ovarian
NCI-H460 lung = system: NCI-H460 lung
A498 renal = system: A498 renal
SK-MEL-2 melanoma = system: SK-MEL-2 melanoma
MALME-3M melanoma = system: MALME-3M melanoma

Work on `CCN1CCN(Cc2ccc(C(=O)Nc3cccc(Nc4ccc5c(OC)cccc5n4)c3)cc2C(F)(F)F)CC1` yielded a GI50 (HCC-2998 colon) of 1.59 µM, a TGI (HCC-2998 colon) of 2.89 µM and a GI50 (SW-620 colon) of 1.45 µM. It also gave a TGI (SW-620 colon) of 2.73 µM, a GI50 (K-562 leukemia) of 2.11 µM and a TGI (K-562 leukemia) of 86.8 µM. For the same molecule, the GI50 (A549 NSCLC) was 2.5 µM, the TGI (A549 NSCLC) was 11.4 µM and the GI50 (UO-31 renal) was 2.33 µM. It also gave a TGI (UO-31 renal) of 9.27 µM, a GI50 (T-47D breast) of 2.11 µM and a TGI (T-47D breast) of 8.14 µM. For the same molecule, the GI50 (TK-10 renal) was 8.67 µM, the TGI (TK-10 renal) was 22.1 µM and the GI50 (SF-295 CNS) was 1.52 µM. It also gave a TGI (SF-295 CNS) of 2.97 µM, a GI50 (HS 578T breast) of 1.96 µM and a TGI (HS 578T breast) of 6.98 µM. It also gave a GI50 (BT-549 breast) of 5.35 µM, a TGI (BT-549 breast) of 17.4 µM and a GI50 (SK-MEL-5 melanoma) of 1.45 µM. It also gave a TGI (SK-MEL-5 melanoma) of 2.78 µM, a GI50 (SK-MEL-28 melanoma) of 1.56 µM and a TGI (SK-MEL-28 melanoma) of 2.87 µM. For the same molecule, the GI50 (MOLT-4 leukemia) was 1.23 µM, the TGI (MOLT-4 leukemia) was 5.05 µM and the GI50 (NCI-H226 lung) was 5.52 µM. It also gave a TGI (NCI-H226 lung) of 18.3 µM, a GI50 (SN12C renal) of 3.62 µM and a TGI (SN12C renal) of 14.8 µM. It also gave a GI50 (MDA-MB-468 breast) of 1.6 µM, a TGI (MDA-MB-468 breast) of 4.53 µM and a GI50 (SNB-19 CNS) of 1.65 µM. For the same molecule, the TGI (SNB-19 CNS) was 3.62 µM, the GI50 (OVCAR-4 ovarian) was 2.89 µM and the TGI (OVCAR-4 ovarian) was 13 µM. It also gave a GI50 (UACC-257 melanoma) of 1.51 µM, a TGI (UACC-257 melanoma) of 2.85 µM and a GI50 (SK-OV-3 ovarian) of 12.6 µM. It also gave a TGI (SK-OV-3 ovarian) of 27.2 µM, a GI50 (HOP-62 NSCLC) of 3.67 µM and a TGI (HOP-62 NSCLC) of 17.6 µM. The GI50 (OVCAR-8 ovarian) was 6.78 µM, the TGI (OVCAR-8 ovarian) was 18.4 µM and the GI50 (IGROV1 ovarian) was 3.09 µM. For the same molecule, the TGI (IGROV1 ovarian) was 11.2 µM, the GI50 (NCI/ADR-RES ovarian) was 2.28 µM and the TGI (NCI/ADR-RES ovarian) was 9.03 µM. The GI50 (U251 CNS) was 1.69 µM, the TGI (U251 CNS) was 3.47 µM and the GI50 (ACHN renal) was 1.85 µM. For the same molecule, the TGI (ACHN renal) was 4.32 µM, the GI50 (HL-60(TB) leukemia) was 1.57 µM and the TGI (HL-60(TB) leukemia) was 4.84 µM. It also gave a GI50 (SNB-75 CNS) of 1.2 µM, a TGI (SNB-75 CNS) of 8.39 µM and a GI50 (HOP-92 NSCLC) of 1.58 µM. It also gave a TGI (HOP-92 NSCLC) of 5.27 µM, a GI50 (HCT-116 colon) of 1.45 µM and a TGI (HCT-116 colon) of 2.64 µM. It also gave a GI50 (RPMI-8226 leukemia) of 2.24 µM, a TGI (RPMI-8226 leukemia) of 6.67 µM and a GI50 (DU-145 prostate) of 2.55 µM. It also gave a TGI (DU-145 prostate) of 9.25 µM, a GI50 (SF-268 CNS) of 2.17 µM and a TGI (SF-268 CNS) of 9.91 µM. The GI50 (MCF7 breast) was 1.5 µM, the TGI (MCF7 breast) was 3.5 µM and the GI50 (HCT-15 colon) was 1.58 µM. For the same molecule, the TGI (HCT-15 colon) was 3.29 µM, the GI50 (EKVX NSCLC) was 4.06 µM and the TGI (EKVX NSCLC) was 15.3 µM. For the same molecule, the GI50 (PC-3 prostate) was 2.14 µM, the TGI (PC-3 prostate) was 6.26 µM and the GI50 (MDA-MB-231 breast) was 1.54 µM. The TGI (MDA-MB-231 breast) was 3.05 µM, the GI50 (M14 melanoma) was 1.47 µM and the TGI (M14 melanoma) was 2.72 µM. The GI50 (OVCAR-3 ovarian) was 1.8 µM, the TGI (OVCAR-3 ovarian) was 4.58 µM and the GI50 (KM12 colon) was 2.2 µM. The TGI (KM12 colon) was 5.62 µM, the GI50 (MDA-MB-435) was 1.36 µM and the TGI (MDA-MB-435) was 2.82 µM. It also gave a GI50 (UACC-62 melanoma) of 1.53 µM, a TGI (UACC-62 melanoma) of 2.83 µM and a GI50 (RXF 393 renal) of 1.63 µM. It also gave a TGI (RXF 393 renal) of 5 µM, a GI50 (SF-539 CNS) of 1.37 µM and a TGI (SF-539 CNS) of 2.54 µM. The GI50 (CCRF-CEM leukemia) was 1.97 µM, the TGI (CCRF-CEM leukemia) was 5.38 µM and the GI50 (CAKI-1 renal) was 1.46 µM. It also gave a TGI (CAKI-1 renal) of 3.19 µM, a GI50 (NCI-H23 lung) of 2.37 µM and a TGI (NCI-H23 lung) of 7.03 µM. For the same molecule, the GI50 (LOX IMVI melanoma) was 1.45 µM, the TGI (LOX IMVI melanoma) was 2.65 µM and the GI50 (SR leukemia) was 1.87 µM. For the same molecule, the TGI (SR leukemia) was 4.67 µM, the GI50 (NCI-H522 lung) was 1.7 µM and the TGI (NCI-H522 lung) was 3.3 µM. For the same molecule, the GI50 (OVCAR-5 ovarian) was 3.28 µM, the TGI (OVCAR-5 ovarian) was 12.7 µM and the GI50 (NCI-H460 lung) was 1.47 µM. It also gave a TGI (NCI-H460 lung) of 2.8 µM, a GI50 (A498 renal) of 11.8 µM and a TGI (A498 renal) of 24.9 µM. The GI50 (SK-MEL-2 melanoma) was 10.7 µM, the TGI (SK-MEL-2 melanoma) was 23.8 µM and the GI50 (MALME-3M melanoma) was 1.44 µM. It also gave a TGI (MALME-3M melanoma) of 2.63 µM.
